Patent US8597640B2, “Over-the-counter vitamin/nutriceutical formulation that provides neuroprotection and maintains or improves cognitive performance in alzheimer's disease and normal aging” (University of Massachusetts Lowell, priority 2007, dated 2013)
“Also recorded” adds a separate entry of the source.

Experiments:
[1] = system: presenilin-1 (PS-1) expression; test: PS-1 expression by RT-PCR in murine brain; assay type: in vivo, mouse; settings: normal and ApoE−/− mice, deficient diet + SAM 100 mg/kg diet, 1 month
Protocol: Adult (9-12 months of age) C57B/6 mice that either express (“normal”) or lack murine ApoE (ApoE−/− mice) received a diet (“AIN-76”; Purina/Mother Hubbard, Inc.) either lacking folate and vitamin E (defined as the “deficient diet”) or supplemented with folic acid (4 mg/kg), and vitamin E (50 IU/kg total diet wet weight) (defined as the “complete diet”). The deficient diet was also supplemented in all cases with iron ([…] total diet) as a pro-oxidant (Mihalick et al., (2004) Neuromol. Med. 4:197-202; Shea and Rogers, (2002) Mol. Brain. Res. 108:1-6). Additional groups of mice maintained on each diet received SAM for the entire month (100 mg/kg diet; Chan et al., (2007) in press; Tchantchou et al., (2005) J. Alzheimers Dis. 7:135-138). […]
To analyze PS-1 expression, total mRNA was extracted from the above homogenate using an RNA isolation kit and stored at −20° C. as described (Chan and Shea, (2006) J. Alzheimers Dis. 9:399-405). Transcription of murine PS-1 was analyzed using a set of primers 5′-[…]-3′ (SEQ ID NO: 1) and 5′-[…]-3′ (SEQ ID NO: 2) respectively, which yielded a product of 557 base pairs (bp) of the murine PS-1 gene. […] Gels were visualized under UV using a Gel Doc 2000 machine from BioRad and analyzed using Quantity One software. […]

gamma secretase = test: Gamma secretase activity in brain homogenates (fluorescent kit); assay type: in vivo, mouse
Protocol: (§1) Adult (9-12 months of age) C57B/6 mice that either express (“normal”) or lack murine ApoE (ApoE−/− mice) received a diet (“AIN-76”; Purina/Mother Hubbard, Inc.) either lacking folate and vitamin E (defined as the “deficient diet”) or supplemented with folic acid (4 mg/kg), and vitamin E (50 IU/kg total diet wet weight) (defined as the “complete diet”). The deficient diet was also supplemented in all cases with iron ([…] total diet) as a pro-oxidant (Mihalick et al., (2004) Neuromol. Med. 4:197-202; Shea and Rogers, (2002) Mol. Brain. Res. 108:1-6). Additional groups of mice maintained on each diet received SAM for the entire month (100 mg/kg diet; Chan et al., (2007) in press; Tchantchou et al., (2005) J. Alzheimers Dis. 7:135-138). Following 1 month of maintenance on these diets, mice were sacrificed by cervical dislocation, and the frontal portion of the brain (encompassing cortex and hippocampus) was immediately removed.
Gamma secretase activity was quantified by fluorescent spectroscopy using a gamma secretase activity kit according to the manufacturer's instructions (R&D Systems, Minneapolis, MN), using the APP peptide GVVIATVIV (SEQ ID NO: 5) conjugated to the reporter molecules EDANS and DABCYL and measuring the cleavage-dependent release of signal at 495 nm.

Abeta = Abeta levels in murine brain by immunoblot; assay type: in vivo, mouse; settings: normal and ApoE−/− mice
Protocol: as §1
A portion (40-50 mg) of the above cortical/hippocampal sample was homogenized with 4 volumes of Tris-saline (50 mM Tris HCl, pH 7.4, 150 mM NaCl containing 1 mM EGTA, 0.5 mM diisopropyl fluorophosphate, 0.5 mM phenylmethylsulfonyl fluoride, 1 μg/ml N-p-tosyl-L-lysine chloromethylketone, 0.1 μg/ml pepstatin, 1 μg/ml antipain, and 1 μg/ml leupeptin). The homogenate was centrifuged at […] for 50 minutes at 4° C. […]

normal C57B/6 mice = settings: SAM administered in isolation; prior studies (Chan et al. 2007); cited from earlier work
[2] = system: mice lacking one or both murine MTHFR alleles; settings: SAM supplementation; Chan et al. (2007) in press; cited from earlier work
[3] = 12 months, Aisen et al. 2003; cited from earlier work
[4] = 12 months, Aisen et al. 2003; cited from earlier work; remark: listed apart in the source
[5] = normal mice, deficient diet + SAM

| SMILES | effect on deficient-diet-induced increase in PS-1 expression [1] | effect on gamma-secretase activity (gamma secretase; ApoE−/− mice, SAM supplementation, FIG. 22) | gamma-secretase activity, less than levels on complete diet (gamma secretase; ApoE−/− mice, deficient diet + SAM) | effect on deficient-diet-induced increase in gamma-secretase activity (gamma secretase; [5]) | gamma-secretase activity relative to complete diet (gamma secretase; [5]) | effect on folate-deprivation-induced increase in Abeta levels (Abeta; folate-deficient diet + SAM) | Abeta levels, SAM in the presence of folate (Abeta; folate-supplemented diet + SAM) | performance of normal mice (normal C57B/6 mice) | cognitive performance [2] | performance on the NPI [3] | decline in ADCS-ADL [4] |
| --- | --- | --- | --- | --- | --- | --- | --- | --- | --- | --- | --- |
| C[S+](CC[C@H](N)C(=O)O)C[C@H]1O[C@@H](n2cnc3c(N)ncnc32)[C@H](O)[C@@H]1O (stereo partly shown) [SAM, S-adenosyl methionine] | prevented these increases; also recorded: prevented or attenuated these increases | statistically (p<0.02) reduced secretase activity | approx. 40% | attenuated by half; also recorded: reduced secretase activity in normal mice (not statistically significant) | approx. 35% | prevented these increases; also recorded: alleviated these increases | did not alter values obtained with folate alone | did not improve the performance of normal mice | improved cognitive performance |  |  |
| COc1ccc2cc([C@H](C)C(=O)O)ccc2c1 [naproxen] |  |  |  |  |  |  |  |  |  | Neither naproxen nor rofecoxib statistically improved performance on the NPI | nor prevented decline in ADCS-ADL |
| CS(=O)(=O)c1ccc(C2=C(c3ccccc3)C(=O)OC2)cc1 [rofecoxib] |  |  |  |  |  |  |  |  |  | Neither naproxen nor rofecoxib statistically improved performance on the NPI | nor prevented decline in ADCS-ADL |
